The numbers were not newly measured in patent EP2662403B1, “Stabilizing resin formulation of halogen-containing polymers” (Reagens S.p.A., priority 2012, dated 2013), which cites them from elsewhere.

The conditions of the data set: indication of the basicity of the polyalkylpiperidine in the formulation, no method or source given.

The structures appear in SMILES notation. Like-named read-outs stand apart in the source and are kept apart here.

Take `CCCCN(c1nc(NCCCN(CCN(CCCNc2nc(N(CCCC)C3CC(C)(C)N(C)C(C)(C)C3)nc(N(CCCC)C3CC(C)(C)N(C)C(C)(C)C3)n2)c2nc(N(CCCC)C3CC(C)(C)N(C)C(C)(C)C3)nc(N(CCCC)C3CC(C)(C)N(C)C(C)(C)C3)n2)c2nc(N(CCCC)C3CC(C)(C)N(C)C(C)(C)C3)nc(N(CCCC)C3CC(C)(C)N(C)C(C)(C)C3)n2)nc(N(CCCC)C2CC(C)(C)N(C)C(C)(C)C2)n1)C1CC(C)(C)N(C)C(C)(C)C1` [Chimassorb 119]: the pKb (Table 11) is given as 5.5-8.5.

Turning to `CN1C(C)(C)CC(OC(=O)CCCCCCCCC(=O)OC2CC(C)(C)N(C)C(C)(C)C2)CC1(C)C` [Tinuvin 765, bis(1,2,2,6,6-pentamethyl-4-piperidyl)sebacate], under “Table 11”, the pKb was 5.5-8.5.

For the molecule `CC1(C)CC(OC(=O)CCCCCCCCC(=O)OC2CC(C)(C)NC(C)(C)C2)CC(C)(C)N1` [Tinuvin 770, bis(2,2,6,6,-tetramethyl-4-piperidyl)sebacate], the pKb is listed as 4.3-7.4 (Table 9), 4.3-7.4 (Table 10), 4.3-7.4 (Table 11) and 4.3-7.4 (Table 12).
